Laboratory results: patent US20130005747A1, “METHOD FOR SELECTING A CANCER THERAPY” (Cyclacel Limited, priority 2010, published 2013)
“Also recorded” adds a separate entry of the source.

Experiments:
[1] = tested on: 270 human cancer cell lines; assay: Pharmacogenomic analysis of cancer cell lines, summary; format: cell-based; details: over half of investigated lung, pancreatic, head and neck, esophageal, liver, thyroid, ovarian, uterine, and skin cancer cell lines; 72 hours
From the text: (§1) A total of 270 human cancer cell lines from diverse cancer histopathologic types were investigated.

[2] = tested on: nasopharyngeal cancer (NPC); details: Phase I, patients with nasopharyngeal cancer; cited from earlier work
OVCAR-8 = assay: Fractional growth, 72 h seliciclib; format: cell-based, human; details: OVCAR-8 (Ovary), 15 μM seliciclib
From the text: as §1

PCI-4A = assay: Fractional growth, 72 h seliciclib; format: cell-based, human; details: PCI-4A (Head & Neck), 15 μM seliciclib
From the text: as §1

IGROV-1 = assay: Fractional growth, 72 h seliciclib; format: cell-based, human; details: IGROV-1 (Ovary), 15 μM seliciclib
From the text: as §1

WM 266-4 = assay: Fractional growth, 72 h seliciclib; format: cell-based, human; details: WM 266-4 (Skin), 15 μM seliciclib
From the text: as §1

Sarc9371 = assay: Fractional growth, 72 h seliciclib; format: cell-based, human; details: Sarc9371 (Bone), 15 μM seliciclib
From the text: as §1

AU565 = assay: Fractional growth, 72 h seliciclib; format: cell-based, human; details: AU565 (Breast), 15 μM seliciclib
From the text: as §1

EN = assay: Fractional growth, 72 h seliciclib; format: cell-based, human; details: EN (Uterus), 15 μM seliciclib
From the text: as §1

RT4 = assay: Fractional growth, 72 h seliciclib; format: cell-based, human; details: RT4 (Bladder), 15 μM seliciclib
From the text: as §1

KMRC-1 = assay: Fractional growth, 72 h seliciclib; format: cell-based, human; details: KMRC-1 (Kidney), 15 μM seliciclib
From the text: as §1

EBC-1 = assay: Fractional growth, 72 h seliciclib; format: cell-based, human; details: EBC-1 (Lung: NSCLC), 15 μM seliciclib
From the text: as §1

SKG-IIIb = assay: Fractional growth, 72 h seliciclib; format: cell-based, human; details: SKG-IIIb (Cervix), 15 μM seliciclib
From the text: as §1

SCC-25 = assay: Fractional growth, 72 h seliciclib; format: cell-based, human; details: SCC-25 (Head & Neck), 15 μM seliciclib
From the text: as §1

NCI-H522 = assay: Fractional growth, 72 h seliciclib; format: cell-based, human; details: NCI-H522 (Lung: NSCLC), 15 μM seliciclib
From the text: as §1

639-V = assay: Fractional growth, 72 h seliciclib; format: cell-based, human; details: 639-V (Bladder), 15 μM seliciclib
From the text: as §1

SBC-5 = assay: Fractional growth, 72 h seliciclib; format: cell-based, human; details: SBC-5 (Lung), 15 μM seliciclib
From the text: as §1

SW620 = assay: Fractional growth, 72 h seliciclib; format: cell-based, human; details: SW620 (Intestine), 15 μM seliciclib
From the text: as §1

Calu-3 = assay: Fractional growth, 72 h seliciclib; format: cell-based, human; details: Calu-3 (Lung: NSCLC), 15 μM seliciclib
From the text: as §1

HMCB = assay: Fractional growth, 72 h seliciclib; format: cell-based, human; details: HMCB (Skin), 15 μM seliciclib
From the text: as §1

NCI-H1573 = assay: Fractional growth, 72 h seliciclib; format: cell-based, human; details: NCI-H1573 (Lung: NSCLC), 15 μM seliciclib
From the text: as §1

U-2 OS = assay: Fractional growth, 72 h seliciclib; format: cell-based, human; details: U-2 OS (Bone), 15 μM seliciclib
From the text: as §1

Ca Ski = assay: Fractional growth, 72 h seliciclib; format: cell-based, human; details: Ca Ski (Cervix), 15 μM seliciclib
From the text: as §1

T24 = assay: Fractional growth, 72 h seliciclib; format: cell-based, human; details: T24 (Bladder), 15 μM seliciclib
From the text: as §1

CAL-12T = assay: Fractional growth, 72 h seliciclib; format: cell-based, human; details: CAL-12T (Lung: NSCLC), 15 μM seliciclib
From the text: as §1

HuCCT1 = assay: Fractional growth, 72 h seliciclib; format: cell-based, human; details: HuCCT1 (Liver), 15 μM seliciclib
From the text: as §1

NCI-H2452 = assay: Fractional growth, 72 h seliciclib; format: cell-based, human; details: NCI-H2452 (Lung), 15 μM seliciclib
From the text: as §1

JHU-022 = assay: Fractional growth, 72 h seliciclib; format: cell-based, human; details: JHU-022 (Head & Neck), 15 μM seliciclib
From the text: as §1

[3] = tested on: C-10 murine immortalized pulmonary epithelial cells; assay: Growth inhibition of immortalized pulmonary epithelial cells (FIG. 6B); format: cell-based
[4] = tested on: nasopharyngeal cancer (NPC); assay: Clinical study of seliciclib in previously treated advanced solid tumors enriched for NPC; format: in vivo, human
Description: The incidence of nasopharyngeal cancer (NPC) varies, with higher rates in southern Asia, intermediate rates in Mediterranean basin countries as well as in Greenland and Alaska populations, and low rates in most of the western countries (Chang et al 2006 Cancer Epidemiol. Biomarkers Prev. v15 p 1765). A clinical study of R-roscovitine (seliciclib) in patients with previously treated advanced solid tumors that was heavily enriched for NPC patients was performed. […] Patients were also evaluated for overall survival, response rate, response duration, safety, and tolerability.
A total of 23 patients were enrolled on the study (11 at 400 mg bid and 12 at 800 mg qd.).
This patient was […] and thus not from one of the patient populations where NPC is more prevalent. K-Ras mutations are extremely rare in NPC patients. A biopsy sample from this patient was analysed for K-Ras mutational status. DNA was extracted from a paraffin embedded tumor sample and analysed for a total of 12 different mutations in Gly12 and Gly13 which represent the most common K-Ras activating mutations. Analysis was performed using a standard PCR-RFLP methodology as has been reported previously (Hatzaki et al 2001 Molecular and Cellular Probes; v15, 243) which identified a K-Ras activating mutation at Gly12 in the tumor sample.
This was a longer period of clinical benefit than achieved with four previous therapies.

CC[C@H](CO)Nc1nc(NCc2ccccc2)c2ncn(C(C)C)c2n1 [seliciclib, roscovitine]
growth inhibition compared with vehicle treated cells [1]: at least 50%
copy counts of the EBV virus [2]: concomitant reduction in copy counts of the EBV virus
tumor response [2]: evidence of tumor shrinkage
Fractional Growth (OVCAR-8): 0.5886
Fractional Growth (PCI-4A): 0.3628
Fractional Growth (IGROV-1): 0.4776
Fractional Growth (WM 266-4): 0.4972
Fractional Growth (Sarc9371): 0.6425
Fractional Growth (AU565): 0.4762
Fractional Growth (EN): 0.1503
Fractional Growth (RT4): 0.9342
Fractional Growth (KMRC-1): 0.554
Fractional Growth (EBC-1): 0.3971
Fractional Growth (SKG-IIIb): 0.6636
Fractional Growth (SCC-25): 0.571
Fractional Growth (NCI-H522): 0.6262
Fractional Growth (639-V): 0.4196
Fractional Growth (SBC-5): 0.7399
Fractional Growth (SW620): 0.7486
Fractional Growth (Calu-3): 0.6463
Fractional Growth (HMCB): 0.161
Fractional Growth (NCI-H1573): 0.5485
Fractional Growth (U-2 OS): 0.5686
Fractional Growth (Ca Ski): 0.591
Fractional Growth (T24): 0.5262
Fractional Growth (CAL-12T): 0.3472
Fractional Growth (HuCCT1): 0.4559
Fractional Growth (NCI-H2452): 0.4571
Fractional Growth (JHU-022): 0.6294
growth inhibition (in words) [3]: Dose-dependent growth inhibition
disease response among the NPC patients ([4]; a number of individuals, 400 mg bid or 800 mg qd): prolonged stable disease
duration of stable disease ([4]; one NPC patient with K-Ras activating mutation at Gly12, schedule B, 800 mg once per day, four days every week): stable disease for over two years; also recorded: stable disease for greater than two years
tolerability ([4]; patients, 400 mg bid and 800 mg qd, four consecutive days every week): well tolerated
